This is an account of results in ChEMBL document CHEMBL1139626, “Total asymmetric synthesis of (-)-conduramine B-1 and of its enantiomer. N-Benzyl derivatives of conduramine B-1 are beta-glucosidase inhibitors” (Bioorg Med Chem Lett, 2005).

A short description of assay [1]: Inhibitory concentration against Beta Glucosidase from Almonds. Also on record: species or system Prunus dulcis.
For assay [2], the target named is T1, Glucoamylase 1 (Rhizopus oryzae) (UniProt P07683).
T1 sequence (whole entry): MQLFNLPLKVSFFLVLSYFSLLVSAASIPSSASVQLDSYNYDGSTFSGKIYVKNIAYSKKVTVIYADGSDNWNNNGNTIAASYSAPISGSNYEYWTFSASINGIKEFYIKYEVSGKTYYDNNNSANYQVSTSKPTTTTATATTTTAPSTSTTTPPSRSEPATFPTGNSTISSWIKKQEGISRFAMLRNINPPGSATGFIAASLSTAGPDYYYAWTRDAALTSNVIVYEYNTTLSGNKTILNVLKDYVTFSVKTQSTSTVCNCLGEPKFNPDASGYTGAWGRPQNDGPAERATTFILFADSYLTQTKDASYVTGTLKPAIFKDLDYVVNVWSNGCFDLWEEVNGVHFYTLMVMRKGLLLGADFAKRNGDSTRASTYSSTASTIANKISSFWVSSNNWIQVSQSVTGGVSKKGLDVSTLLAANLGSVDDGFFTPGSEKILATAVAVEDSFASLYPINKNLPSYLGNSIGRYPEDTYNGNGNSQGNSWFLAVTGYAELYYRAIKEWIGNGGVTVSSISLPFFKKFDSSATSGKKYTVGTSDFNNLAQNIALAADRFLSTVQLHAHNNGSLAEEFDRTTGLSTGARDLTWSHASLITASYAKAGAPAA
In words: Inhibition against Amyloglucosidase from Rhizopus mold at 1 mM; (ni=no inhibition).

Assay [3] deals with Prunus dulcis. In words: Percent inhibition against Beta Glucosidase from Almonds at 1 mM.
Assay [4] has as its target T2, Exo-1,4-beta-xylosidase xlnD (Aspergillus niger) (UniProt O00089).
T2 sequence (whole entry): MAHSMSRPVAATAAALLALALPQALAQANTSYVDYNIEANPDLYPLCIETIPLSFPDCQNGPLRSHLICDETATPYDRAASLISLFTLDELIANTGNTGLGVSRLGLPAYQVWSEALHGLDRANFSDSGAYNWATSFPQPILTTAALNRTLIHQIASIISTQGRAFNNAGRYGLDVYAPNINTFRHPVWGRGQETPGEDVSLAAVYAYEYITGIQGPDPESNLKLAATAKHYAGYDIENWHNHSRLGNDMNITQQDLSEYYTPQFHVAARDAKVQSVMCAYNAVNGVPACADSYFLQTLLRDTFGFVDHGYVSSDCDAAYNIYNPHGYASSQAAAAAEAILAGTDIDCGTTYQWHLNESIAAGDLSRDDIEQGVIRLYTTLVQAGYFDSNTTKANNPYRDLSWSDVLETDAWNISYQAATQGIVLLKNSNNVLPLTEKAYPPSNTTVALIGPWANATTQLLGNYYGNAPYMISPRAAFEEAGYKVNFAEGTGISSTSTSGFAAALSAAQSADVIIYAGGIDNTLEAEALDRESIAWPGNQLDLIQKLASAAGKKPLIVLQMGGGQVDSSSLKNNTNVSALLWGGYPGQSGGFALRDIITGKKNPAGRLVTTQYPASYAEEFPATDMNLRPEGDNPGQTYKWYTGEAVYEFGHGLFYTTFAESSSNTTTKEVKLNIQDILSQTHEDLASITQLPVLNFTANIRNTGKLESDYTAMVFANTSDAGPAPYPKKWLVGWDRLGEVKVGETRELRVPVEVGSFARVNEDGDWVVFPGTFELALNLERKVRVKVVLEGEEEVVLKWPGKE
In words: Inhibition against Beta-xylosidase from Aspergillus niger at 1 mM; (ni=no inhibition).

The target of assay [5] is Glucoamylase (Aspergillus niger) (UniProt P69328). In words: Inhibition against Amyloglucosidase from Aspergillus niger at 1 mM; (ni=no inhibition).
Assay [6] concerns the target T3, Alpha-glucosidase (Oryza sativa Japonica Group) (UniProt Q9LGC6).
T3 sequence (whole entry): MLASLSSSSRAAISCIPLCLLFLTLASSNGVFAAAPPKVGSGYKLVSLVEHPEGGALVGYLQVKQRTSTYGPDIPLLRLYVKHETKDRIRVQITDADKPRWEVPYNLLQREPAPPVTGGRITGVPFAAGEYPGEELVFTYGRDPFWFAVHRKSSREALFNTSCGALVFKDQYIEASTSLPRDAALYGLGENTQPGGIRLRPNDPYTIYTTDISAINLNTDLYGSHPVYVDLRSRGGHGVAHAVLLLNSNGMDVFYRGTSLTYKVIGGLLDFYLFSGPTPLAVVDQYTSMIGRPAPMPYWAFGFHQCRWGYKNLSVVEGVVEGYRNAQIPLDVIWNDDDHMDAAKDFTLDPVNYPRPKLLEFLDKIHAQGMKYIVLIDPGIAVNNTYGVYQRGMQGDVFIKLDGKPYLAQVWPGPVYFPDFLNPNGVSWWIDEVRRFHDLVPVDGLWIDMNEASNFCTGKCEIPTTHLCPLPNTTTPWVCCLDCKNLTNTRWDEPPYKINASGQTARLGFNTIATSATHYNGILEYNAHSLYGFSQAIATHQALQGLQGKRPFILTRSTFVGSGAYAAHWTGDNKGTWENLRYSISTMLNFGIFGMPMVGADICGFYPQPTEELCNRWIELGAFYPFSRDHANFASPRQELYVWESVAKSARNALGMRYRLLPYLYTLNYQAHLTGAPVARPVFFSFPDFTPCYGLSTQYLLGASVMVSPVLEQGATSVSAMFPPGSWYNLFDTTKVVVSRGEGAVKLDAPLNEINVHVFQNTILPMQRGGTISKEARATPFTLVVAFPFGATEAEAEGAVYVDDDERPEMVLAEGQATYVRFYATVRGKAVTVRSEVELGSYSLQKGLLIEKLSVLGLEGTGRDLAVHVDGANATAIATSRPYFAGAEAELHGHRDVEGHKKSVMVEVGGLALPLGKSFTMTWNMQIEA
The assay can be described thus: Inhibition against Alpha Glucosidase from rice at 1 mM; (ni=no inhibition).

Assay [7] is described as follows: Inhibition against Alpha Glucosidase from yeast at 1 mM; (ni=no inhibition).
The target of assay [8] is Beta-glucosidase A (Caldicellulosiruptor saccharolyticus) (UniProt P10482). In words: Inhibition against Beta Glucosidase from Caldocellum saccharolyticum at 1 mM; (ni=no inhibition).
Assay [9] deals with Prunus dulcis. In words: Inhibition against Beta Glucosidase from Almonds at 1 mM; (ni=no inhibition).
For assay [10], the target named is Beta-glucosidase A (Caldicellulosiruptor saccharolyticus) (UniProt P10482). In words: Percent inhibition against Beta Glucosidase from Caldocellum saccharolyticum at 1 mM.

Calls of active or inactive are those of the source. The calls are words filed in the database; no cut-off is given here.

Chain of Glucoamylase (Aspergillus niger) (P69328 whole entry): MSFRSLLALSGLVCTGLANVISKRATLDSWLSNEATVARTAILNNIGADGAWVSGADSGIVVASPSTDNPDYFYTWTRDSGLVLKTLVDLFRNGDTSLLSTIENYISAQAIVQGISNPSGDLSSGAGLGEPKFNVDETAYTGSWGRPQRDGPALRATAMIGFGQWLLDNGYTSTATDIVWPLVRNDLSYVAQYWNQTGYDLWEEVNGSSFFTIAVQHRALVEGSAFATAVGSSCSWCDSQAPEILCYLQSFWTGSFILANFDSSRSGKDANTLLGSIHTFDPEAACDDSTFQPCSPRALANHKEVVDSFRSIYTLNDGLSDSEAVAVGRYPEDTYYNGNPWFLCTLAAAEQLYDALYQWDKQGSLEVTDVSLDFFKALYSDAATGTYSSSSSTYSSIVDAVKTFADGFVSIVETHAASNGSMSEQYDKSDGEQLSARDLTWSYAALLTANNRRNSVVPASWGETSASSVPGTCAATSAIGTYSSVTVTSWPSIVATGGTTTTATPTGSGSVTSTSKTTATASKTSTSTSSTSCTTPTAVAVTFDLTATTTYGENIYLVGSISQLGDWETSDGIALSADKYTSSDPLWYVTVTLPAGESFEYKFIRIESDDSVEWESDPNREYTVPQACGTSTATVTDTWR
Chain of Beta-glucosidase A (Caldicellulosiruptor saccharolyticus) (P10482 whole entry): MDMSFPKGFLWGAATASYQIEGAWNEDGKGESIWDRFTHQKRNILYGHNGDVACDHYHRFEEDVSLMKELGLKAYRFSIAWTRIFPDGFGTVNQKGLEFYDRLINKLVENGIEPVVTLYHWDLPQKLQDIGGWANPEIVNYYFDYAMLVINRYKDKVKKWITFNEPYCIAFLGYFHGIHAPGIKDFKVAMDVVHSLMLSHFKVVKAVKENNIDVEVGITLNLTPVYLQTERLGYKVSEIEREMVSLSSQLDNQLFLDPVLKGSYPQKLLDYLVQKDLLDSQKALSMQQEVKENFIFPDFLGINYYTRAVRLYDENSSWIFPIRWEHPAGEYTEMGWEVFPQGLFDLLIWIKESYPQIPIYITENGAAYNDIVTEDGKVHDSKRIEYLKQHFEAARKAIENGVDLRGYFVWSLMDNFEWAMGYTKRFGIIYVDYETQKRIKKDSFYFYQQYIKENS

What is called IC50 is the midpoint of a concentration-inhibition curve. Lower therefore signals inhibition by little substance. The term inhibition denotes the change of the read-out against control, counted positive when it falls. Compound `OC1C=CC(NCCc2ccccc2)C(O)C1O` (racemic) returned a concentration for half-maximal inhibition (IC50) in [1] of 32 µM. Besides, the inhibition result in assay [2], in assay [4], in [5], in [6] and in [7] was “inactive” each time. The same compound returned an inhibition in [3] of 86%.

The compound `CCCCCCNC1C=CC(O)C(O)C1O` (racemic) registered an IC50 in assay [1] of 32 µM. Further, the inhibition entry in assay [2], in assay [4], in assay [5], in [6] and in assay [7] was “inactive” throughout. This compound also showed an inhibition in assay [3] of 92%.

Take `CCCN(CCC)C1C=CC(O)C(O)C1O` (racemic): the inhibition entry in assay [2], in assay [4], in assay [5], in assay [6], in assay [7] and in [8] was “inactive” in each case. Also, the inhibition in [3] came to 36%.

As to `OC1C=CC(N(CCc2ccccc2)CCc2ccccc2)C(O)C1O` (racemic), the inhibition entry in [2], in [4], in [5], in assay [6], in assay [7] and in assay [8] was “inactive” throughout. The same compound displayed an inhibition in assay [3] of 36%.

As to `COc1cc(O)c(CNC2C=CC(O)C(O)C2O)c(Br)c1` (single isomer, unassigned), the inhibition entry in assay [2], in [4], in assay [5], in assay [6], in assay [7] and in assay [9] was “inactive” throughout. The inhibition entry in [8] is “inactive”.

As to `NC1C=CC(O)C(O)C1O` (single isomer, unassigned; (-)), the inhibition result in assay [2], in assay [4], in assay [5], in [6], in assay [7] and in assay [9] was “inactive” in each case. Further, in assay [8], the inhibition result was “inactive”.

Regarding `OC1C=CC(NCc2ccc(-c3ccccc3)cc2)C(O)C1O` (stereo in doubt), the inhibition entry in assay [2], in assay [4], in [5], in assay [6], in [7] and in assay [8] was “inactive” throughout. The compound also came in with an inhibition in assay [3] of 56%.

With `OC1C=CC(NCc2ccc(Oc3ccccc3)cc2)C(O)C1O` (stereo in doubt), the inhibition result in assay [2], in assay [4], in [5], in [6], in assay [7] and in assay [9] was “inactive” each time. In assay [8], the inhibition result is “inactive”.

`Oc1ccc(CNC2C=CC(O)C(O)C2O)cc1` (stereo in doubt; 4f) came in with an IC50 in [1] of 72 µM.

Take `OC1C=CC(NCc2ccc(Cl)cc2)C(O)C1O` (stereo in doubt; 4h): the inhibition result in [2], in assay [4], in assay [5], in assay [6] and in [7] was “inactive” throughout. Besides, the inhibition in assay [10] came out at 84%; in [3], 96%.

`NC1C=CC(O)C(O)C1O` (stereo in doubt; (+)-3): the inhibition entry in assay [2], in assay [4], in [5], in [6], in assay [7] and in assay [9] was “inactive” throughout. Also, the inhibition result in [8] was “inactive”.
